According to paper PMC12670405, “Second-Generation AURKA-Targeting PROTACs: Structural Optimization toward in Vivo Degradation in Neuroblastoma” (Journal of Medicinal Chemistry, 2025):

How the values were obtained:
Assay in all cases: KINOMEscan scanMAX
Format in all cases: binding
MRCKB = target: T1, MRCKB (Homo sapiens, UniProt Q9Y5S2); conditions: read-out: Percent Control
T1 construct: purchased Eurofins Discovery (DiscoverX KINOMEscan scanMAX)
Protocol: (§1) The kinome-wide binding assay was performed by Eurofins Discovery using the scanMAX screening platform. More information can be found on the Eurofins Discovery Web site.

WNK1 = target: T2, WNK1 (Homo sapiens, UniProt Q9H4A3); conditions: read-out: Percent Control
T2 construct: purchased Eurofins Discovery (DiscoverX KINOMEscan scanMAX)
Protocol: as §1

DMPK2 = target: T3, DMPK2 (Homo sapiens, UniProt Q6DT37); conditions: read-out: Percent Control
T3 construct: purchased Eurofins Discovery (DiscoverX KINOMEscan scanMAX)
Protocol: as §1

DYRK2 = target: T4, DYRK2 (Homo sapiens, UniProt Q92630); conditions: read-out: Percent Control
T4 construct: purchased Eurofins Discovery (DiscoverX KINOMEscan scanMAX)
Protocol: as §1

LZK = target: T5, LZK (Homo sapiens, UniProt O43283); conditions: read-out: Percent Control
T5 construct: purchased Eurofins Discovery (DiscoverX KINOMEscan scanMAX)
Protocol: as §1

YSK1 = target: T6, YSK1 (Homo sapiens, UniProt O00506); conditions: read-out: Percent Control
T6 construct: purchased Eurofins Discovery (DiscoverX KINOMEscan scanMAX)
T6 sequence (O00506 whole entry): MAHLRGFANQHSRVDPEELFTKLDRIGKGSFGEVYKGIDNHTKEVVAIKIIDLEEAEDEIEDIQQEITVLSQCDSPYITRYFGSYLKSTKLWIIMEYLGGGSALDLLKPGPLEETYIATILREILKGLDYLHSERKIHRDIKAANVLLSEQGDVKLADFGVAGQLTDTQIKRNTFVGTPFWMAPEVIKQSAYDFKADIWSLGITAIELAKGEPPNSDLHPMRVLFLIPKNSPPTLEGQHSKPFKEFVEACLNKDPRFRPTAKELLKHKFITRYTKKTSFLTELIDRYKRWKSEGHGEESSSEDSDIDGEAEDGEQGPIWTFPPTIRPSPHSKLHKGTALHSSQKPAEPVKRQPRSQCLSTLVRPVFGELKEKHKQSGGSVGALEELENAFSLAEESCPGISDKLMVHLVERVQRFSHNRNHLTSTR
Protocol: as §1

FGFR4 = target: T7, FGFR4 (Homo sapiens, UniProt P22455); conditions: read-out: Percent Control
T7 construct: purchased Eurofins Discovery (DiscoverX KINOMEscan scanMAX)
Protocol: as §1

[1] = target: T8, RSK1(Kin.Dom.2-C-terminal) (Homo sapiens, UniProt Q15418); conditions: read-out: Percent Control
T8 construct: RSK1(Kin.Dom.2-C-terminal); purchased Eurofins Discovery (DiscoverX KINOMEscan scanMAX)
Protocol: as §1

ERBB3 = target: T9, ERBB3 (Homo sapiens, UniProt P21860); conditions: read-out: Percent Control
T9 construct: purchased Eurofins Discovery (DiscoverX KINOMEscan scanMAX)
Protocol: as §1

EGFR(E746-A750del) = target: T10, EGFR(E746-A750del) (Homo sapiens, UniProt P00533, DEL746-750); conditions: read-out: Percent Control
T10 construct: purchased Eurofins Discovery (DiscoverX KINOMEscan scanMAX)
Protocol: as §1

CSNK2A1 = target: T11, CSNK2A1 (Homo sapiens, UniProt P68400); conditions: read-out: Percent Control
T11 construct: purchased Eurofins Discovery (DiscoverX KINOMEscan scanMAX)
Protocol: as §1

MYLK4 = target: T12, MYLK4 (Homo sapiens, UniProt Q86YV6); conditions: read-out: Percent Control
T12 construct: purchased Eurofins Discovery (DiscoverX KINOMEscan scanMAX)
T12 sequence (Q86YV6 whole entry): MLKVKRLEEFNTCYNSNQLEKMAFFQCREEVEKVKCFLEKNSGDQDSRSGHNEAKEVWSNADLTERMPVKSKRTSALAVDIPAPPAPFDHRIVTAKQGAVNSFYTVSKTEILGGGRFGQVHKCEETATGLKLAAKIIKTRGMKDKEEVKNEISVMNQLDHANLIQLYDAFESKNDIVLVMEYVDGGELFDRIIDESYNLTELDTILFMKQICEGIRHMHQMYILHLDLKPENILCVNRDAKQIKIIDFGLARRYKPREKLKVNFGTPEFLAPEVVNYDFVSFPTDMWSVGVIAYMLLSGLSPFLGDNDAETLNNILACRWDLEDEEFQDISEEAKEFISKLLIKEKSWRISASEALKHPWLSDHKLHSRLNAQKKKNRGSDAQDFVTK
Protocol: as §1

IRAK1 = target: T13, IRAK1 (Homo sapiens, UniProt P51617); conditions: read-out: Percent Control
T13 construct: purchased Eurofins Discovery (DiscoverX KINOMEscan scanMAX)
Protocol: as §1

PIK3C2G = target: T14, PIK3C2G (Homo sapiens, UniProt O75747); conditions: read-out: Percent Control
T14 construct: purchased Eurofins Discovery (DiscoverX KINOMEscan scanMAX)
T14 sequence (O75747 whole entry): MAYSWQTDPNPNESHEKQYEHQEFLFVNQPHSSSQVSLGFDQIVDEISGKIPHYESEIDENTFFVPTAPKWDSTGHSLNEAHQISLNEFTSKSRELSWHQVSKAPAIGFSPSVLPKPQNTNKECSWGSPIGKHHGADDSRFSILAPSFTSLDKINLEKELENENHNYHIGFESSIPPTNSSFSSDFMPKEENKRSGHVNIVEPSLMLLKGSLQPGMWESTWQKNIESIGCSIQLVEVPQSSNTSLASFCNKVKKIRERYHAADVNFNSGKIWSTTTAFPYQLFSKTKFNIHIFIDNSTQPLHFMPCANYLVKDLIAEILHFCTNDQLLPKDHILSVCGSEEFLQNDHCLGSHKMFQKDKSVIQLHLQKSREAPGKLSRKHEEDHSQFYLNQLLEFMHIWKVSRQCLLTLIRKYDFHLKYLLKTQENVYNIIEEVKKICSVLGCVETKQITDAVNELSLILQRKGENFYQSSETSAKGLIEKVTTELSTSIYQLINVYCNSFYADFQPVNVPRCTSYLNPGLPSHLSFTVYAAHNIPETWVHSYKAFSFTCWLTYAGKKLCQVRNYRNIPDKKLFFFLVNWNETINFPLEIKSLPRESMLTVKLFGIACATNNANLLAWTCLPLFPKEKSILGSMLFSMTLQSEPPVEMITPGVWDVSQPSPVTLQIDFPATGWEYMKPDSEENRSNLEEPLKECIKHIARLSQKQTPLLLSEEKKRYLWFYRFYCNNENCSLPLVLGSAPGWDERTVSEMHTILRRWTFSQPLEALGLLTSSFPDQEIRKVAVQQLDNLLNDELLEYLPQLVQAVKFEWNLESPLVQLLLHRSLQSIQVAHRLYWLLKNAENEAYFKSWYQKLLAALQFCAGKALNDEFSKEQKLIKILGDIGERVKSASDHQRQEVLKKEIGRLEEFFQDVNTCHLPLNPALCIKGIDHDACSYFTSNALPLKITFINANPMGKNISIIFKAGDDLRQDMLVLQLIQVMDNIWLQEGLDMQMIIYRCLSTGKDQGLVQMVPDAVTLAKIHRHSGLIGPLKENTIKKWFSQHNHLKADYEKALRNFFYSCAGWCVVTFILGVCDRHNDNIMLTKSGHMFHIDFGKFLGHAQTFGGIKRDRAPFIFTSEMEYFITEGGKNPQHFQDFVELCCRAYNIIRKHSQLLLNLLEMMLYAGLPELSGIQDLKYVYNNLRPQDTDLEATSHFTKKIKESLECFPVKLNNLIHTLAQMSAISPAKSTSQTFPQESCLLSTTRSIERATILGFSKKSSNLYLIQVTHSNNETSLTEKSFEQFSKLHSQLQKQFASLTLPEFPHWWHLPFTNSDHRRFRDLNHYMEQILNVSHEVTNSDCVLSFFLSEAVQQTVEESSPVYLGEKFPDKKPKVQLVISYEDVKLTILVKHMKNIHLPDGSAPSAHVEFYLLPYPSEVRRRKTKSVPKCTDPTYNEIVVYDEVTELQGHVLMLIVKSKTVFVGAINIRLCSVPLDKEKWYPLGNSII
Protocol: as §1

[2] = target: T15, ABL1(M351T)-phosphorylated (Homo sapiens, UniProt P00519, M351T); conditions: read-out: Percent Control
T15 construct: purchased Eurofins Discovery (DiscoverX KINOMEscan scanMAX)
Protocol: as §1

SGK2 = target: T16, SGK2 (Homo sapiens, UniProt Q9HBY8); conditions: read-out: Percent Control
T16 construct: purchased Eurofins Discovery (DiscoverX KINOMEscan scanMAX)
Protocol: as §1

ABL1 = target: T17, ABL1 (Homo sapiens, UniProt P00519); conditions: 1000 nM; read-out: Percent Control
T17 construct: purchased Eurofins Discovery
Protocol: as §1

FLT3(ITD,F691L) = system: FLT3(ITD,F691L)
Protocol: as §1

FLT3(ITD) = system: FLT3(ITD)
Protocol: as §1

PIK3CA(E545A) = target: T18, PIK3CA(E545A) (Homo sapiens, UniProt P42336, E545A); conditions: read-out: Percent Control
T18 construct: purchased Eurofins Discovery (DiscoverX KINOMEscan scanMAX)
T18 sequence (P42336 whole entry E545A): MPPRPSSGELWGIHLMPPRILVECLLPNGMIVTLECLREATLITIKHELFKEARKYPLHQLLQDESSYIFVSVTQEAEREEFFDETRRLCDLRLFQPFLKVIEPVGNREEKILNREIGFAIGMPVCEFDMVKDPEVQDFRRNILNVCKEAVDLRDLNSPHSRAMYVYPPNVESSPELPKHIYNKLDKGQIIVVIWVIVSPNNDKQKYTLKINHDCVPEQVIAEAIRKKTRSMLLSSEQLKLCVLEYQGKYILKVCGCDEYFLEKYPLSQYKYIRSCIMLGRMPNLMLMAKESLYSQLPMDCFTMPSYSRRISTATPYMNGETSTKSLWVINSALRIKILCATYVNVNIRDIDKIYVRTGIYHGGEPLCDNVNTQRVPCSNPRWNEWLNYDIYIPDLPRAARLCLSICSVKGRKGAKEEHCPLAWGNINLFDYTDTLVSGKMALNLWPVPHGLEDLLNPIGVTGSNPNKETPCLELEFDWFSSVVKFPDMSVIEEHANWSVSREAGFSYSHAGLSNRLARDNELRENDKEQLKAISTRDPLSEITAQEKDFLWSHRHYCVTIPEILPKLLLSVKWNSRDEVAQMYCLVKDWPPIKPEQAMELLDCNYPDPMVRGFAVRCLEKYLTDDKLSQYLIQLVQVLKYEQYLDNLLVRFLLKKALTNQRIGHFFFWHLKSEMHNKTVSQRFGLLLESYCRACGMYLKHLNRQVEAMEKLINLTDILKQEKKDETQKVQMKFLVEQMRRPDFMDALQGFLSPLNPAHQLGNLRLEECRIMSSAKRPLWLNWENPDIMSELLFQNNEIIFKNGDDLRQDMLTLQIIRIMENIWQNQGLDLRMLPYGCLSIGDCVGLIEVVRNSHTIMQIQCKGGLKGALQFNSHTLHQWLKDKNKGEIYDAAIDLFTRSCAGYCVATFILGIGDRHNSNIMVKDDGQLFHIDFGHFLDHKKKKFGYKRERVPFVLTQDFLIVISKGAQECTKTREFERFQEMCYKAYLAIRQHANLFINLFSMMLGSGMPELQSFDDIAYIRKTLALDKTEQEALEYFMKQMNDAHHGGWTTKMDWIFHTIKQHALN
Protocol: as §1

IKK-alpha = target: T19, IKK-alpha (Homo sapiens, UniProt O15111); conditions: read-out: Percent Control
T19 construct: purchased Eurofins Discovery (DiscoverX KINOMEscan scanMAX)
T19 sequence (O15111 whole entry): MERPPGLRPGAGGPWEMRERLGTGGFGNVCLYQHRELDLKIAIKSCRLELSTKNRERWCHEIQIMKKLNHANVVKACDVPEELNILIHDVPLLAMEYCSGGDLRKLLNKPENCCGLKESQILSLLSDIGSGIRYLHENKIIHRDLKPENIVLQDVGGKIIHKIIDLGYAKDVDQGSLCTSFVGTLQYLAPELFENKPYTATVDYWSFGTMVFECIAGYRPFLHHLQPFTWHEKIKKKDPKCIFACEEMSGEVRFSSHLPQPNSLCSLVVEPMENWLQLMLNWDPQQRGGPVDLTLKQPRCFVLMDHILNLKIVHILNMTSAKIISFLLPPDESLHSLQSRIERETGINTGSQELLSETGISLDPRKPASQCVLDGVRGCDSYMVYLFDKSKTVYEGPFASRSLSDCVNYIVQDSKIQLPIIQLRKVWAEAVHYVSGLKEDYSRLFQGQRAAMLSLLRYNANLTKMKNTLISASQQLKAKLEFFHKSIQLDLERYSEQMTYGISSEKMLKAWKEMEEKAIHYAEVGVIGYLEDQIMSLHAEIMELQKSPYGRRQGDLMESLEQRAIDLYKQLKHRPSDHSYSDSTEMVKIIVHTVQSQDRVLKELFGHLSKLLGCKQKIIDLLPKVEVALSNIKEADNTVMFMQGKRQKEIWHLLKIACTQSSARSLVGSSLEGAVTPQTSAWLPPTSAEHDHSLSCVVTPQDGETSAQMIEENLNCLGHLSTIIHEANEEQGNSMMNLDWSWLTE
Protocol: as §1

MELK = target: T20, MELK (Homo sapiens, UniProt Q14680); conditions: read-out: Percent Control
T20 construct: purchased Eurofins Discovery (DiscoverX KINOMEscan scanMAX)
Protocol: as §1

PHKG1 = target: T21, PHKG1 (Homo sapiens, UniProt Q16816); conditions: read-out: Percent Control
T21 construct: purchased Eurofins Discovery (DiscoverX KINOMEscan scanMAX)
Protocol: as §1

ALK(L1196M) = target: T22, ALK(L1196M) (Homo sapiens, UniProt Q9UM73, L1196M); conditions: read-out: Percent Control
T22 construct: purchased Eurofins Discovery (DiscoverX KINOMEscan scanMAX)
Protocol: as §1

CDK3 = target: T23, CDK3 (Homo sapiens, UniProt Q00526); conditions: read-out: Percent Control
T23 construct: purchased Eurofins Discovery (DiscoverX KINOMEscan scanMAX)
Protocol: as §1

SRMS = target: T24, SRMS (Homo sapiens, UniProt Q9H3Y6); conditions: read-out: Percent Control
T24 construct: purchased Eurofins Discovery (DiscoverX KINOMEscan scanMAX)
T24 sequence (Q9H3Y6 whole entry): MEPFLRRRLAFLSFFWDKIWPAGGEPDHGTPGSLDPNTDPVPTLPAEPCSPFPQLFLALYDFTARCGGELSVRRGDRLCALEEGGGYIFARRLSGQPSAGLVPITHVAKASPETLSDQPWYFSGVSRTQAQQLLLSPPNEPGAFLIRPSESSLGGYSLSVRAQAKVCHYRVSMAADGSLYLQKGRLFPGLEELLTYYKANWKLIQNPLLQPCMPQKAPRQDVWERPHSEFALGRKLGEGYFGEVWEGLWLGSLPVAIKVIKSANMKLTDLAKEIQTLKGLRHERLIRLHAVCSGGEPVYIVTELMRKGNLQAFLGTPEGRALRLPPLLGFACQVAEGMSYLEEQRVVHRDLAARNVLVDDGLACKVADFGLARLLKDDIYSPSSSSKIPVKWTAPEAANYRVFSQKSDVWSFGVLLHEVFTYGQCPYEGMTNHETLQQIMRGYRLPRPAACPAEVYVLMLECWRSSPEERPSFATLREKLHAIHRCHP
Protocol: as §1

MST2 = target: T25, MST2 (Homo sapiens, UniProt Q13188); conditions: read-out: Percent Control
T25 construct: purchased Eurofins Discovery (DiscoverX KINOMEscan scanMAX)
Protocol: as §1

LIMK1 = target: T26, LIMK1 (Homo sapiens, UniProt P53667); conditions: read-out: Percent Control
T26 construct: purchased Eurofins Discovery (DiscoverX KINOMEscan scanMAX)
Protocol: as §1

DAPK2 = target: T27, DAPK2 (Homo sapiens, UniProt Q9UIK4); conditions: read-out: Percent Control
T27 construct: purchased Eurofins Discovery (DiscoverX KINOMEscan scanMAX)
T27 sequence (Q9UIK4 whole entry): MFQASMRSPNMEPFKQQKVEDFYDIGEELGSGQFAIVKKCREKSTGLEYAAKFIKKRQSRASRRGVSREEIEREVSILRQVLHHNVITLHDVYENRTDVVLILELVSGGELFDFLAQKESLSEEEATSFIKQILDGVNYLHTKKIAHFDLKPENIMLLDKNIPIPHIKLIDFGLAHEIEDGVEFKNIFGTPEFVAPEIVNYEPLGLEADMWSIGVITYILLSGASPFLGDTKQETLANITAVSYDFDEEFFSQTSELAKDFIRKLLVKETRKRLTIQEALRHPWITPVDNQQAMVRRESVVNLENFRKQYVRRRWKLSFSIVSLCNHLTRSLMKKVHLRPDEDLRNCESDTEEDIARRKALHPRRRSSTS
Protocol: as §1

HIPK1 = target: T28, HIPK1 (Homo sapiens, UniProt Q86Z02); conditions: read-out: Percent Control
T28 construct: purchased Eurofins Discovery (DiscoverX KINOMEscan scanMAX)
Protocol: as §1

EPHB2 = target: T29, EPHB2 (Homo sapiens, UniProt P29323); conditions: read-out: Percent Control
T29 construct: purchased Eurofins Discovery (DiscoverX KINOMEscan scanMAX)
Protocol: as §1

CDK5 = target: T30, CDK5 (Homo sapiens, UniProt Q00535); conditions: read-out: Percent Control
T30 construct: purchased Eurofins Discovery (DiscoverX KINOMEscan scanMAX)
Protocol: as §1

PIK3CA(E542K) = target: T31, PIK3CA(E542K) (Homo sapiens, UniProt P42336, E542K); conditions: read-out: Percent Control
T31 construct: purchased Eurofins Discovery (DiscoverX KINOMEscan scanMAX)
T31 sequence (P42336 whole entry E542K): as the sequence (P42336 whole entry E545A) above, with E542K, A545E counted along it
Protocol: as §1

## Cc1cc(Nc2ccc(F)c(CC3(C(=O)N4CCC(F)(CN5CCN(c6ccc(N7CCC(=O)NC7=O)cn6)CC5)CC4)CCN(Cc4cccc(Cl)c4F)CC3)n2)n[nH]1 [SK5527]
MRCKB; 100 nM
  remaining binding at 0.1 µM: 98%
MRCKB; 1000 nM
  remaining binding at 1 µM: 93%
WNK1; 100 nM
  remaining binding at 0.1 µM: 73%
WNK1; 1000 nM
  remaining binding at 1 µM: 77%
DMPK2; 100 nM
  remaining binding at 0.1 µM: 100%
DMPK2; 1000 nM
  remaining binding at 1 µM: 100%
DYRK2; 100 nM
  remaining binding at 0.1 µM: 100%
DYRK2; 1000 nM
  remaining binding at 1 µM: 80%
LZK; 100 nM
  remaining binding at 0.1 µM: 92%
LZK; 1000 nM
  remaining binding at 1 µM: 90%
YSK1; 100 nM
  remaining binding at 0.1 µM: 100%
YSK1; 1000 nM
  remaining binding at 1 µM: 98%
FGFR4; 100 nM
  remaining binding at 0.1 µM: 89%
FGFR4; 1000 nM
  remaining binding at 1 µM: 89%
[1]; 100 nM
  remaining binding at 0.1 µM: 85%
[1]; 1000 nM
  remaining binding at 1 µM: 92%
ERBB3; 100 nM
  remaining binding at 0.1 µM: 100%
ERBB3; 1000 nM
  remaining binding at 1 µM: 100%
EGFR(E746-A750del); 100 nM
  remaining binding at 0.1 µM: 78%
EGFR(E746-A750del); 1000 nM
  remaining binding at 1 µM: 70%
CSNK2A1; 100 nM
  remaining binding at 0.1 µM: 90%
CSNK2A1; 1000 nM
  remaining binding at 1 µM: 69%
MYLK4; 100 nM
  remaining binding at 0.1 µM: 100%
MYLK4; 1000 nM
  remaining binding at 1 µM: 100%
IRAK1; 100 nM
  remaining binding at 0.1 µM: 94%
IRAK1; 1000 nM
  remaining binding at 1 µM: 76%
PIK3C2G; 100 nM
  remaining binding at 0.1 µM: 71%
PIK3C2G; 1000 nM
  remaining binding at 1 µM: 98%
[2]; 100 nM
  remaining binding at 0.1 µM: 70%
[2]; 1000 nM
  remaining binding at 1 µM: 34%
SGK2; 100 nM
  remaining binding at 0.1 µM: 93%
SGK2; 1000 nM
  remaining binding at 1 µM: 83%
ABL1
  remaining binding at 1 µM: 8.4%
FLT3(ITD,F691L); 100 nM
  Percent Control: 100%
FLT3(ITD,F691L); 1000 nM
  Percent Control: 75%
FLT3(ITD); 100 nM
  Percent Control: 89%
FLT3(ITD); 1000 nM
  Percent Control: 94%
PIK3CA(E545A); 100 nM
  remaining binding at 0.1 µM: 72%
PIK3CA(E545A); 1000 nM
  remaining binding at 1 µM: 100%
IKK-alpha; 100 nM
  remaining binding at 0.1 µM: 100%
IKK-alpha; 1000 nM
  remaining binding at 1 µM: 100%
MELK; 100 nM
  remaining binding at 0.1 µM: 99%
MELK; 1000 nM
  remaining binding at 1 µM: 87%
PHKG1; 100 nM
  remaining binding at 0.1 µM: 99%
PHKG1; 1000 nM
  remaining binding at 1 µM: 100%
ALK(L1196M); 100 nM
  remaining binding at 0.1 µM: 91%
ALK(L1196M); 1000 nM
  remaining binding at 1 µM: 100%
CDK3; 100 nM
  remaining binding at 0.1 µM: 83%
CDK3; 1000 nM
  remaining binding at 1 µM: 87%
SRMS; 100 nM
  remaining binding at 0.1 µM: 90%
SRMS; 1000 nM
  remaining binding at 1 µM: 82%
MST2; 100 nM
  remaining binding at 0.1 µM: 76%
MST2; 1000 nM
  remaining binding at 1 µM: 55%
LIMK1; 100 nM
  remaining binding at 0.1 µM: 88%
LIMK1; 1000 nM
  remaining binding at 1 µM: 96%
DAPK2; 100 nM
  remaining binding at 0.1 µM: 100%
DAPK2; 1000 nM
  remaining binding at 1 µM: 93%
HIPK1; 100 nM
  remaining binding at 0.1 µM: 81%
HIPK1; 1000 nM
  remaining binding at 1 µM: 92%
EPHB2; 100 nM
  remaining binding at 0.1 µM: 74%
EPHB2; 1000 nM
  remaining binding at 1 µM: 95%
CDK5; 100 nM
  remaining binding at 0.1 µM: 100%
CDK5; 1000 nM
  remaining binding at 1 µM: 100%
PIK3CA(E542K); 100 nM
  remaining binding at 0.1 µM: 81%
PIK3CA(E542K); 1000 nM
  remaining binding at 1 µM: 68%
